Results: patent US6096930A, “Herbicidal cyclohexane-1,3-dione derivatives and their preparation process” (Korea Research Institute of Chemical Technology, priority 1994, dated 2000)
Like-named read-outs stand apart in the source and are kept apart here.

Tests used:
Format in all cases: in vivo
GOSHI [1] = experiment: Herbicidal activity, upland test, post-emergence
From the text: (§1) The sterilized sandy loam soil is filled in test pot having a surface area of 348 cm^2 for upland test conditions or 115 cm^2 for paddy test species were planted in furrows.
(§2) The pots for the post-emergent tests were placed in a greenhouse and watered for 9~14 days, then the foliage of test plants was sprayed with a solution of the test compound in a mixture of acetone and water containing a small amount of Tween 20.
(§3) After spraying the plants were kept for one day, then watered regularly for 14 to 21 days, and herbicidal activity data were recorded.
(§4) The herbicidal activity data were taken visually by percent control, wherein 0 signifies no herbicidal effect and 100 signifies complete kill.

ZEAMX = experiment: Herbicidal activity, upland test, post-emergence
From the text: as §1, §2, §3, §4

ORYSA [2] = experiment: Herbicidal activity, upland test, pre-emergence
Experimental: as §1
(§5) For the pre-emergent tests, were sprayed on the soil one day after planting test compound in a mixture of acetone and 7 ml of the water containing up to 0.1% Tween 20.
(§6) The concentration of the test compound in solution was varied to give a range of application rates, generally 4.0 kg/ha and submultiples thereof. The pots were placed in a greenhouse and watered regularly at the soil surface for 21 days and herbicidal effects were visually rated by a percent control.
as §4

GLXMX = experiment: Herbicidal activity, upland test, pre-emergence
Experimental: as §1, §5, §6, §4

PANDI = experiment: Herbicidal activity, upland test, pre-emergence
Experimental: as §1, §5, §6, §4

ABUTH = experiment: Herbicidal activity, upland test, pre-emergence
Experimental: as §1, §5, §6, §4

GOSHI [3] = experiment: Herbicidal activity, upland test, pre-emergence
Experimental: as §1, §5, §6, §4

ORYSA [4] = experiment: Herbicidal activity for paddy test; details: for plant injury at 2 g/ha: 0.002 kg/ha; for plant injury at 8 g/ha: 0.008 kg/ha; for plant injury at 31 g/ha: 0.031 kg/ha; for plant injury at 125 g/ha: 0.125 kg/ha; for plant injury at 500 g/ha: 0.500 kg/ha
Procedure, shortened: (§7)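 Paddy test species were sown in furrows in sterilized sandy loam soil filled into pots with a 115 cm^2 surface area. Herbicidal activity was scored visually as percent control, from 0 (no effect) to 100 (complete kill).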

SAGPY = experiment: Herbicidal activity for paddy test
Procedure, shortened: as §7

SCPJU = experiment: Herbicidal activity for paddy test
Procedure, shortened: as §7

MOOVA = experiment: Herbicidal activity for paddy test
Procedure, shortened: as §7

ECHOR = experiment: Herbicidal activity for paddy test
Procedure, shortened: as §7

[5] = 3 Leaf, read-out: Herbicidal activity, ORYSA (3 Leaf)
[6] = seed, read-out: Herbicidal activity, ORYSA (seed)

**Q.** How did the “Herbicidal activity, GOSHI” value (GOSHI [1]; 0.063 kg/ha) turn out when `CCON=C(CC)C1=C(O)CC(c2c(C)c(C)c3c(c2C)CC(C)(C)C3)CC1=O` (stereo not shown) [Compound 2] was run?
**A.** 40 % inhibition

**Q.** And the “Herbicidal activity, GOSHI” value (GOSHI [1]; 1.000 kg/ha)?
**A.** 70 % inhibition

**Q.** And the “Herbicidal activity, GOSHI” value (GOSHI [1]; 1.250 kg/ha)?
**A.** 50 % inhibition

**Q.** And the “Herbicidal activity, ZEAMX” value (ZEAMX; 0.004 kg/ha)?
**A.** 0 % inhibition

**Q.** And the “Herbicidal activity, ZEAMX” value (ZEAMX; 0.016 kg/ha)?
**A.** 40 % inhibition

**Q.** What about the “Herbicidal activity, ZEAMX” value (ZEAMX; 0.063 kg/ha) of the same compound?
**A.** 100 % inhibition

**Q.** And the “Herbicidal activity, ZEAMX” value (ZEAMX; 1.000 kg/ha)?
**A.** 100 % inhibition

**Q.** What about the “Herbicidal activity, ZEAMX” value (ZEAMX; 1.250 kg/ha) of the same compound?
**A.** 100 % inhibition

**Q.** And the “Herbicidal activity, ORYSA” value (ORYSA [2]; 0.016 kg/ha)?
**A.** 0 % inhibition

**Q.** What about the “Herbicidal activity, ORYSA” value (ORYSA [2]; 0.063 kg/ha) of the same compound?
**A.** 0 % inhibition

**Q.** What about the “Herbicidal activity, ORYSA” value (ORYSA [2]; 1.000 kg/ha) of the same compound?
**A.** 100 % inhibition

**Q.** And the “Herbicidal activity, ORYSA” value (ORYSA [2]; 1.250 kg/ha)?
**A.** 60 % inhibition

**Q.** What about the “Herbicidal activity, GLXMX” value (GLXMX; 0.016 kg/ha) of the same compound?
**A.** 0 % inhibition

**Q.** And the “Herbicidal activity, GLXMX” value (GLXMX; 0.063 kg/ha)?
**A.** 0 % inhibition

**Q.** What about the “Herbicidal activity, GLXMX” value (GLXMX; 1.000 kg/ha) of the same compound?
**A.** 0 % inhibition

**Q.** What about the “Herbicidal activity, GLXMX” value (GLXMX; 1.250 kg/ha) of the same compound?
**A.** 0 % inhibition

**Q.** And the “Herbicidal activity, PANDI” value (PANDI; 0.016 kg/ha)?
**A.** 0 % inhibition

**Q.** And the “Herbicidal activity, PANDI” value (PANDI; 0.063 kg/ha)?
**A.** 50 % inhibition

**Q.** And the “Herbicidal activity, PANDI” value (PANDI; 1.000 kg/ha)?
**A.** 100 % inhibition

**Q.** And the “Herbicidal activity, PANDI” value (PANDI; 1.250 kg/ha)?
**A.** 100 % inhibition

**Q.** And the “Herbicidal activity, ABUTH” value (ABUTH; 0.016 kg/ha)?
**A.** 0 % inhibition

**Q.** What about the “Herbicidal activity, ABUTH” value (ABUTH; 0.063 kg/ha) of the same compound?
**A.** 0 % inhibition

**Q.** What about the “Herbicidal activity, ABUTH” value (ABUTH; 1.000 kg/ha) of the same compound?
**A.** 0 % inhibition

**Q.** And the “Herbicidal activity, ABUTH” value (ABUTH; 1.250 kg/ha)?
**A.** 0 % inhibition

**Q.** And the “Herbicidal activity, GOSHI” value (GOSHI [3]; 0.016 kg/ha)?
**A.** 0 % inhibition

**Q.** What about the “Herbicidal activity, GOSHI” value (GOSHI [3]; 0.063 kg/ha) of the same compound?
**A.** 0 % inhibition

**Q.** And the “Herbicidal activity, GOSHI” value (GOSHI [3]; 1.000 kg/ha)?
**A.** 0 % inhibition

**Q.** What about the “Herbicidal activity, GOSHI” value (GOSHI [3]; 1.250 kg/ha) of the same compound?
**A.** 0 % inhibition

**Q.** And the plant injury at 2 g/ha (ORYSA [4]; [5])?
**A.** 0%

**Q.** What about the plant injury at 8 g/ha (ORYSA [4]; [5]) of the same compound?
**A.** 0%

**Q.** And the plant injury at 31 g/ha (ORYSA [4]; [5])?
**A.** 0%

**Q.** What about the plant injury at 125 g/ha (ORYSA [4]; [5]) of the same compound?
**A.** 60%

**Q.** What about the plant injury at 500 g/ha (ORYSA [4]; [5]) of the same compound?
**A.** 100%

**Q.** What about the plant injury at 2 g/ha (ORYSA [4]; [6]) of the same compound?
**A.** 30%

**Q.** And the plant injury at 8 g/ha (ORYSA [4]; [6])?
**A.** 80%

**Q.** What about the plant injury at 31 g/ha (ORYSA [4]; [6]) of the same compound?
**A.** 100%

**Q.** And the plant injury at 125 g/ha (ORYSA [4]; [6])?
**A.** 100%

**Q.** And the plant injury at 500 g/ha (ORYSA [4]; [6])?
**A.** 100%

**Q.** And the pest or weed control at 2 g/ha (SAGPY; 0.002 kg/ha)?
**A.** 0%

**Q.** What about the pest or weed control at 8 g/ha (SAGPY; 0.008 kg/ha) of the same compound?
**A.** 0%

**Q.** And the pest or weed control at 31 g/ha (SAGPY; 0.031 kg/ha)?
**A.** 0%

**Q.** What about the pest or weed control at 125 g/ha (SAGPY; 0.125 kg/ha) of the same compound?
**A.** 0%

**Q.** And the pest or weed control at 500 g/ha (SAGPY; 0.500 kg/ha)?
**A.** 0%

**Q.** What about the pest or weed control at 2 g/ha (SCPJU; 0.002 kg/ha) of the same compound?
**A.** 0%

**Q.** What about the pest or weed control at 8 g/ha (SCPJU; 0.008 kg/ha) of the same compound?
**A.** 0%

**Q.** What about the pest or weed control at 31 g/ha (SCPJU; 0.031 kg/ha) of the same compound?
**A.** 0%

**Q.** And the pest or weed control at 125 g/ha (SCPJU; 0.125 kg/ha)?
**A.** 0%

**Q.** What about the pest or weed control at 500 g/ha (SCPJU; 0.500 kg/ha) of the same compound?
**A.** 0%

**Q.** And the pest or weed control at 2 g/ha (MOOVA; 0.002 kg/ha)?
**A.** 0%

**Q.** What about the pest or weed control at 8 g/ha (MOOVA; 0.008 kg/ha) of the same compound?
**A.** 0%

**Q.** What about the pest or weed control at 31 g/ha (MOOVA; 0.031 kg/ha) of the same compound?
**A.** 0%

**Q.** And the pest or weed control at 125 g/ha (MOOVA; 0.125 kg/ha)?
**A.** 0%

**Q.** And the pest or weed control at 500 g/ha (MOOVA; 0.500 kg/ha)?
**A.** 0%

**Q.** And the pest or weed control at 2 g/ha (ECHOR; 0.002 kg/ha)?
**A.** 60%

**Q.** What about the pest or weed control at 8 g/ha (ECHOR; 0.008 kg/ha) of the same compound?
**A.** 100%

**Q.** And the pest or weed control at 31 g/ha (ECHOR; 0.031 kg/ha)?
**A.** 100%

**Q.** What about the pest or weed control at 125 g/ha (ECHOR; 0.125 kg/ha) of the same compound?
**A.** 100%

**Q.** What about the pest or weed control at 500 g/ha (ECHOR; 0.500 kg/ha) of the same compound?
**A.** 100%
